Literature values as cited in US7959947B2, “Film coating” (AstraZeneca AB, priority 2001, dated 2011).

Settings: 60° C.; according to data in Handbook of Pharmaceutical Excipients

- Solubility in water: 0.005 gram per gram water
SMILES: CCCCCCCCCCCCCCCCCCOC(=O)/C=C/C(=O)[O-].[Na+] [Sodium stearyl fumarate, sodium salt of 2-butenedioic monooctadecyl ester]
